For seven molecules, Kb and Ki results are on record in US8927577B2, “Quinolinyl glucagon receptor modulators” (Pfizer Inc., priority 2011, dated 2015).

Structures are written as SMILES.

Experiment [1] concerns the target T1, human glucagon receptor (Homo sapiens (Human), UniProt P47871). In words: Glucagon cAMP Assay. Type of experiment: cell-based. The note with it: CHOK1 cells stably transfected with the human glucagon receptor; 100 pM glucagon challenge; Kb from IC50 by modified Cheng-Prusoff equation. The procedure: The Cisbio cAMP detection assay is used to determine the ability of punitive glucagon antagonist to block glucagon induced cAMP production. Potential glucagon antagonists are re-suspended and diluted in 100% DMSO. Prior to use in the Glucagon cAMP assay 100×DMSO compound stocks are diluted 20× with DMEM-F12 media (Invitogen) containing either 0.1% or 4% BSA. 2 uls of 5× compound stocks are spotted into the appropriate wells of low binding white solid bottom 384 well plates (Corning). 2 uls of 5% DMSO or known glucagon antagonist are added to each plate to define the assay window. CHOK1 cells stably transfected with the human glucagon receptor are removed from culture flasks with cell dissociation buffer. Cell pellets are re-suspended, at a concentration of 8.3e^5 cells/ml in DMEM-F12 with or without 4% BSA and 200 uM IBMX. 6 uls of cell suspensions are added to the assay plates. Plates are incubated for 20 min at room temperature prior to the addition of a 100 pM challenge dose of glucagon. On a separate plate glucagon dose response curves are run to determine the EC50 of glucagon. After a 30 min room temperature incubation the reaction is terminated by the addition of lysis buffer containing the cAMP detection reagents. Plates are incubated for an additional 60 min at room temperature prior to being read on the Perkin Elmer fluorescent plate reader. Raw is converted to nM of cAMP produced based on a cAMP standard curve. Converted data is then analyzed using the Pfizer data analysis program. IC50 values are determined from the generated sigmoidal dose response curves. Kb values are the calculated using a modified Cheng-Prusoff equation.

The target of experiment [2] is T1, human glucagon receptor. The experiment is described as follows: Human Glucagon SPA Assay. The conditions noted are these: membrane from chem-1 cells stably transfected with the human glucagon receptor; 125 pM [125I]Glucagon-Cex; Ki by Cheng-Prusoff equation; read-out: Binding Ki. The procedure: The Glucagon SPA assay is used to determine the ability of test compounds to block the binding of glucagon-cex to the glucagon receptor. Test compounds are re-suspended and serially diluted in 100% DMSO. 1 ul of test compound at the desired concentrations is spotted into the appropriate wells of 96 well low binding white clear bottom plate (Corning). 1 ul of DMSO is spotted into total binding wells. 1 ul of a known glucagon antagonist at a concentration of 20 uM is added to non specific binding wells. […] All assay ingredients with the exception of test compounds are re-suspended in the following buffer; 50 mM Hepes pH 7.4; 5 mM MgCl2; 1 mM CaCl; 5% glycerol and 0.2% BSA. Following a 6-10 hr incubation at room temperature the amount of hot ligand bound to the cell membranes is determined by reading the plates on a Wallac Trilux radioactive emission detector. Data is analyzed using Pfizer's Data analysis program. IC50 values are then determined from the generated sigmoidal dose response curves. Ki values are calculated using Cheng-Prusoff equation.

T1 sequence (P47871 26-477): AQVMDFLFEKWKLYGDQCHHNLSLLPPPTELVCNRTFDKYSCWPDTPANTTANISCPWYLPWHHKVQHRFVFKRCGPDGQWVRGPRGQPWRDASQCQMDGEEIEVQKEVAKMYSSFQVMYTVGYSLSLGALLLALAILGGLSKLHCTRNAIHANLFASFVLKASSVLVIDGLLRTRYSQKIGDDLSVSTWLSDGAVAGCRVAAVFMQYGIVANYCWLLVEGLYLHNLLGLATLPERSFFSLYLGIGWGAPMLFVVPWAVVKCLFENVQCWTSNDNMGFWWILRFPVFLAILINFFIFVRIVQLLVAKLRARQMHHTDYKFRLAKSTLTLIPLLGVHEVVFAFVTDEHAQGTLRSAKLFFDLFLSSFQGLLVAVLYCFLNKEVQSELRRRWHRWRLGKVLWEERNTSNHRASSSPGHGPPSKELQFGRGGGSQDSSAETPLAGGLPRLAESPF

`Cc1cc2ccccc2nc1NC(CC(C)C)c1ccc(C(=O)NCCC(=O)O)cc1` (single isomer, unassigned; isomer 2) [Example 31, 3-(4-(3-methyl-1-((3-methylquinolin-2-yl)amino)butyl)benzamido)propanoic acid, Isomer 2] showed a Kb at human glucagon receptor [1] of 1.3 µM. Further, the Ki on human glucagon receptor [2] is 1.24 µM.

For `Cc1cc2cc(F)ccc2nc1NC(c1ccc(C(=O)NCCC(=O)O)cc1)C1CC(C)(C)C1` (single isomer, unassigned; isomer 2) [Example 35, 3-{4-[(3,3-dimethyl-cyclobutyl)-(6-fluoro-3-methyl-quinolin-2-ylamino)-methyl]-benzoylamino}-propionic acid, isomer 2], the Kb on human glucagon receptor [1] came to 0.033 µM. Moreover, the Ki on human glucagon receptor [2] turned out to be 0.014 µM.

Take `CCC[C@@H](Nc1nc2ccccc2cc1C)c1ccc(C(=O)NCCC(=O)O)cc1` [Example 1, (+)-3-(4-(1-((3-Methylquinolin-2-yl)amino)butyl)benzamido)propanoic acid]: the Kb on human glucagon receptor [1] worked out at 0.11 µM. Besides, the Ki on human glucagon receptor [2] came out at 0.173 µM.

Regarding `CCC[C@H](Nc1nc2ccccc2cc1C)c1ccc(C(=O)NCCC(=O)O)cc1` [Example 2, (−)-3-(4-(1-((3-Methylquinolin-2-yl)amino)butyl)benzamido)propanoic acid], the Kb on human glucagon receptor [1] stood at 0.52 µM. On human glucagon receptor [2], the Ki amounted to 0.28 µM.

`Cc1nc2ccccc2cc1NC(CC(C)C)c1ccc(C(=O)NCCC(=O)O)cc1` (centres unmarked) [Example 17, (+\−)-3-(4-(3-methyl-1-(2-methylquinolin-3-ylamino)butyl)benzamido)propanoic acid] had a Kb on human glucagon receptor [1] of 0.88 µM. Further, on human glucagon receptor [2], the Ki came to 0.36 µM.

In the case of `Cc1c(NC(CC(C)C)c2ccc(C(=O)NCCC(=O)O)cc2)cnc2ccccc12` (centres unmarked) [Example 18, (+\−)-3-(4-(3-methyl-1-(4-methylquinolin-3-ylamino)butyl)benzamido)propanoic acid], at human glucagon receptor [1], the Kb came out at 0.1 µM. Also, the Ki on human glucagon receptor [2] came out at 0.109 µM.

With `Cc1ccc2ncc(NC(CC(C)C)c3ccc(C(=O)NCCC(=O)O)cc3)cc2c1` (stereo not drawn) [Example 27, N-(4-{3-methyl-1-[(6-methylquinolin-3-yl)amino]butyl}benzoyl)-beta-alanine], the Kb on human glucagon receptor [1] was found to be 0.25 µM. The Ki at human glucagon receptor [2] amounted to 0.16 µM.

Usually Ki stands for the equilibrium dissociation constant of an inhibitor or competing ligand from its target.
